“Also recorded” adds a separate entry of the source.
Legend:
Abca4^−/−Rdh8^−/− mice = assay: Light-induced retinal degeneration in Abca4-/-Rdh8-/- mice (OCT, ERG, histology), Example 1; type: in vivo, mouse; conditions: for protection against light-induced retinal degeneration (ONL thickness from OCT): 0.875 μmol per mouse oral gavage 16 h before 10,000 lux 1 h, OCT after 3 days in dark
Procedure: Abca4^−/−Rdh8^−/− double knockout mice were housed in the animal facility at the School of Medicine, Case Western Reserve University, where they were maintained under either complete darkness or a 12-h light (−10 1×) and 12-h dark cycle. All retinylamine tested were dissolved or suspended in 100 μl of vegetable oil with less than 10% (v/v) DMSO and were administered by oral gavage with a 22-gauge feeding needle. Experimental manipulations in the dark were done under dim red light transmitted through a Kodak No. 1 safelight filter (transmittance >560 nm). All animal procedures and experiments were approved by the Case Western Reserve University Animal Care Committees and conformed to recommendations of the American Veterinary Medical Association Panel on Euthanasia and the Association of Research for Vision and Ophthalmology.
After dark adaptation for 48 h, one or two Abca4^−/−Rdh8^−/− mice with pupils dilated by 1% tropicamide were exposed to fluorescent light (10,000 1×; 150-W spiral lamp, Commercial Electric) for 60 min in a white plastic bucket (Papersmith) with food and water and then kept in the dark. Histological and biochemical experiments were performed 3 days after exposure.
Ultra-high resolution spectral-domain OCT (SD-OCT; Bioptigen) and Heidelberg Retinal Angiograph II SLO (Heidelberg Engineering) were used for in vivo imaging of mouse retinas. Mice were anesthetized by intraperitoneal injection of a cocktail (20 μl g-1 body weight) containing ketamine (6 mg ml-1) and xylazine (0.44 mg ml-1) in 10 mM sodium phosphate, pH 7.2, and 100 mM NaCl. Pupils were dilated with 1% tropicamide. Four pictures acquired in the B-scan mode were used to construct each final averaged SD-OCT image.
(§1) All ERG procedures were performed by published methods. For single-flash recording, the duration of white-light flash stimuli (from 20 μs to 1 ms) was adjusted to provide a range of illumination intensities (from −3.7 to 1.6 log cd s m-2). Three to five recordings were made at sufficient intervals between flash stimuli (from 3 s to 1 min) to allow recovery from any photobleaching effects.
Mouse eyes were fixed for 24 h by rocking in a fixation solution (2 ml/eye) containing 4% paraformaldehyde and 1% glutaraldehyde in PBS. The tissue was processed through a series of ethanols, xylenes, and paraffins in a Tissue-Tek VIP automatic processor (Sakura, Torrance, Calif., USA), and 5-μm sections were cut using a Microm HM355 paraffin microtome (Thermo Fisher Scientific, Waltham, Mass., USA) and stained with hematoxylin and eosin (H&E) stain. Images of stained sections were captured by a Leica CTR6000 microscope attached to a CCD camera (Micropublisher 5.0 RTV, Qimaging Surray BC, Canada).
The effectiveness of the retinylamine derivatives on preventing light-induced retinal degeneration was tested in four-week old Abca4^−/−Rdh8^−/− mice according to the experimental scheme depicted in FIG. 1. After the mice were dark-adapted for 48 h, the drugs were gavaged at a dose 0.875 μmol/per mouse, which was selected based on the half protection dose for retinylamine after a dosing experiment, FIG. 2. Retinylamine was tested as a control at the same dose. […] Retinal integrity was assessed using optical coherence tomography (OCT). […] The mice without any treatment had photoreceptor cells completely destroyed after light illumination, and were used as a negative control. The retinal integrity was determined based on the thickness of outer nuclear layer (ONL) of the retinas measured from the OCT images. Reduced ONL thickness signifies the decreasing number of photoreceptors and retinal degeneration.

C57BL/6J wild-type mice = assay: ERG retinal function in C57BL/6J wild-type mice after oral gavage; type: in vivo; conditions: 1.75 μmol per mouse oral; for ERG signal compared with nontreated control: 6 h post-treatment; for ERG signal compared with untreated control: 24 h post treatment
Procedure: as §1
Strong inhibition of retinoid cycle could cause temporary vision impairment. Electroretinograms (ERGs) were recorded to in retinal function in C57BL/6J wild-type mice at 6 and 24 h after oral gavage of RVG, RF or Ret-NH2 at a dose of 1.75 μmol per mouse.

RPE65 = target: T1, RPE65 (Mus musculus, UniProt Q91ZQ5); assay: In vivo RPE65 inhibition: 11-cis-retinal regeneration after photo-bleach; conditions: 1.75 μmol per mouse oral 16 h prior to photo-bleach (7000 lux, 10 min), 24 h dark
T1 sequence (Q91ZQ5 2-533 limits assumed): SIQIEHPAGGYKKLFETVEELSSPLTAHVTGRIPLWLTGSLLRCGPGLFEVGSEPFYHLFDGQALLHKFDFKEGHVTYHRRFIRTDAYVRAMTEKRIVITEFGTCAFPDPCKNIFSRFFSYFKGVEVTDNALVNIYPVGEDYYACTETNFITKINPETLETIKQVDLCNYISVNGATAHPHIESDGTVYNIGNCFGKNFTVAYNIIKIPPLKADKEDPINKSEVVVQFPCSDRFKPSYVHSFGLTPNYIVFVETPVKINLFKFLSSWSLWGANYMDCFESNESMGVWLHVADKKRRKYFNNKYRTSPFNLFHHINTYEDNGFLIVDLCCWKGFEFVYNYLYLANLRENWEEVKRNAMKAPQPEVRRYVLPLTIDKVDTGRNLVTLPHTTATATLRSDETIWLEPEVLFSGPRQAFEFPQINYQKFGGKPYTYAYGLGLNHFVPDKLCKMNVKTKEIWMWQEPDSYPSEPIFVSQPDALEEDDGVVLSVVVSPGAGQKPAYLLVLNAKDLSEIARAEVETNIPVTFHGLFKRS
Procedure: The retinylamine derivatives (31 RVG and 3b RF) or Ret-NH2 were administered by oral gavage at same mole dose 1.75 μmol per mouse into dark-adapted C57BLwild-type female mice (n=3) at 16 h prior to photo-bleach. After photo-bleach (7000 lux, 10 min), mice were kept the dark room for 24 h to allow the visual cycle to recovery. Mice were then sacrificed and eyes were extracted for analysis. Mice without treatment prior to photo-bleach were set as control. Retinoid extraction was done by manually homogenizing eyes in 1 mL of 1:1 ethanol:PBS solution containing 40 mM hydroxylamine. Retinoids were extracted in 4 mL hexane, concentrated, and reconstituted to a volume of 200 μL. Normal-phase HPLC (Agilent-Zorbax SIL; 5 μm; 4.5×250 mm; flow rate of 1.4 mL/min; 90:10 hexane:ethyl acetate (v:v); detection at 325 nm) was utilized to analyze retinoid concentrations. In vivo RPE65 inhibition was analyzed by quantifying the amount of 11-cis-retinal within each eye.

CC1=C(/C=C/C(C)=C/C=C/C(C)=C/CNC(=O)[C@@H](NC(=O)CN)C(C)C)C(C)(C)CCC1 [RVG, (S)-2-(2-aminoacetamido)-N-((2E,4E,6E,8E)-3,7-dimethyl-9-(2,6,6-trimethylcyclohex-1-en-1-yl)nona-2,4,6,8-tetraen-1-yl)-3-methylbutanamide]
average scotopic a wave ERG peak amplitudes (Abca4^−/−Rdh8^−/− mice; 0.875 μmol per mouse 16 h prior to light illumination, evaluated 7 days later): virtually the same as those without light-illumination (NLI) | protection against light-induced retinal degeneration (ONL thickness from OCT) (Abca4^−/−Rdh8^−/− mice): significant improvement on preventing light-induced retinopathy over retinyl amine | retina structure by histology (H&E) (Abca4^−/−Rdh8^−/− mice; treated before intense light exposure, 7 days after light exposure): maintained intact retina structure; also recorded: protected Abca4^−/−Rdh8^−/− retina from light damage | ERG signal compared with nontreated control (C57BL/6J wild-type mice): attenuated ERG signal | ERG signal compared with untreated control (C57BL/6J wild-type mice): recover to the magnitude of the untreated control mice | regeneration of 11-cis-retinal in the eye (RPE65): faster regeneration of 11-cis-retinal in the eye, and weaker inhibition of retinoid cycle than Ret-NH2

CC1=C(/C=C/C(C)=C/C=C/C(C)=C/CNC(=O)[C@@H](N)Cc2ccccc2)C(C)(C)CCC1 [RF, (S)-2-amino-N-((2E,4E,6E,8E)-3,7-dimethyl-9-(2,6,6-trimethylcyclohex-1-en-1-yl)nona-2,4,6,8-tetraen-1-yl)-3-phenylpropanamide]
protection against light-induced retinal degeneration (ONL thickness from OCT) (Abca4^−/−Rdh8^−/− mice): low protecting effect | protection against light-induced retinal degeneration (ONL thickness from OCT) (Abca4^−/−Rdh8^−/− mice; listed as phenylalanyl): little protecting efficacy | ERG signal compared with nontreated control (C57BL/6J wild-type mice): attenuated ERG signal | ERG signal compared with untreated control (C57BL/6J wild-type mice): recover to the magnitude of the untreated control mice | regeneration of 11-cis-retinal in the eye (RPE65): faster regeneration of 11-cis-retinal in the eye, and weaker inhibition of retinoid cycle than Ret-NH2

CC1=C(/C=C/C(C)=C/C=C/C(C)=C/CN)C(C)(C)CCC1 [Ret-NH2, (2E,4E,6E,8E)-3,7-dimethyl-9-(2,6,6-trimethylcyclohex-1-en-1-yl)nona-2,4,6,8-tetraen-1-amine]
ERG signal in the retina (C57BL/6J wild-type mice; first 24 h after the treatment): no significant ERG signal was detected | regeneration of 11-cis-retinal in the eye (RPE65): much lower concentration of 11-cis-retinal than the untreated controls
